Test results published in patent US10829496B2, “Thienopyridines and benzothiophenes useful as IRAK4 inhibitors” (BRISTOL-MYERS SQUIBB COMPANY, priority 2017, dated 2020).

What was measured:
[1] = Caco-2 Permeability Assay; assay type: in vitro ADME; conditions: human, 3 μM compound, 2 hours at 37° C., direction not given
Method: Caco-2 Permeability Assay
Thirteen to 27 days prior to assay, Caco-2 cells were seeded onto collagen-coated polycarbonate filter membranes in 24-well transwell plates at a density of 1.45×10^5 cells/cm^2, approximately 4.8×10^4 cells per well. The cells were grown in a culture medium consisting of DMEM supplemented with 10% fetal bovine serum, 10 mM HEPES, 1% nonessential amino acids, 2 mM L-glutamine, 100 U/mL penicillin-G, and 100 μg/mL streptomycin. The culture medium was replaced every 3 days and the cells were maintained at 37° C. in a 95% relative humidity and 5% CO2 atmosphere. The cells were evaluated for tight junction formation just prior to assay. The test compound was solubilized to 10 mM in 100% DMSO and diluted to 3 μM in assay buffer. Permeability studies were initiated by adding 200 μL assay buffer plus/minus compound to the apical transwell compartment and 600 μL assay buffer plus/minus compound to the basolateral compartment of the 24-well transwell low-binding cluster plate. For apical-to-basolateral (A to B) permeability (absorptive direction), buffer containing compound was placed in the apical compartment (donorwells), while buffer alone was placed in the corresponding basolateral compartments (receiverwells). For basolateral-to-apical (B to A) permeability (secretive direction), buffer containing compound was placed in the basolateral compartment (donor wells), while buffer alone was placed in the corresponding apical compartments (receiver wells). Transwells were then incubated for 2 hours at 37° C. in a 95% relative humidity and 5% CO2 atmosphere with gentle agitation. Following incubation, 100 μL was removed from each apical and basolateral compartment and transferred to 96-well low binding plates that had been previously loaded with 100 μL/well of acetonitrile containing 250 nM propranolol, 250 nM diclofenac, and 500 nM tolbutamide as internal standards. The samples were subsequently analyzed by LC-MS/MS to determine concentrations of compound.

[2] = molecular target: IRAK4 (Homo sapiens (Human), UniProt Q9NWZ3); test: IRAK4 Inhibition Assay; assay type: biochemical; conditions: ATP 500 μM; IRAK4 0.6 nM; 60 min at room temperature
IRAK4, sequence (Q9NWZ3 whole entry): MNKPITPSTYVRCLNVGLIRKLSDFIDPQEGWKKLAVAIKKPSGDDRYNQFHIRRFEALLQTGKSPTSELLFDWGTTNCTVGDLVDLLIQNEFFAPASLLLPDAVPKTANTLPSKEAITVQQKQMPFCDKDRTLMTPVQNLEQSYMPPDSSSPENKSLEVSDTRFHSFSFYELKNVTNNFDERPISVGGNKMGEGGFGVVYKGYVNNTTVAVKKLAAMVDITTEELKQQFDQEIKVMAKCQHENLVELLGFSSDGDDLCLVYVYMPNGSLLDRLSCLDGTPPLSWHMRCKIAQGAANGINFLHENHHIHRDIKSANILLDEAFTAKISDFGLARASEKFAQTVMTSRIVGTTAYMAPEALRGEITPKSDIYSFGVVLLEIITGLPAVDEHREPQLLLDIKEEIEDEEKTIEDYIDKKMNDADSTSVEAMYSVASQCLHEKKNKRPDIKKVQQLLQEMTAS
Method: The assays were performed in U-bottom 384-well plates. The final assay volume was 30 μL prepared from 15 μL additions of enzyme and substrates (fluoresceinated peptide and ATP) and test compounds in assay buffer (20 mM HEPES pH 7.2, 10 mM MgCl2, 0.015% Brij 35 and 4 mM DTT). The reaction was initiated by the combination of IRAK4 with substrates and test compounds. The reaction mixture was incubated at room temperature for 60 min. and terminated by adding 45 μL of 35 mM EDTA to each sample. The reaction mixture was analyzed on the Caliper LABCHIP® 3000 (Caliper, Hopkinton, Mass.) by electrophoretic separation of the fluorescent substrate and phosphorylated product. Inhibition data were calculated by comparison to no enzyme control reactions for 100% inhibition and vehicle-only reactions for 0% inhibition. The final concentrations of reagents in the assays are ATP, 500 μM; FL-IPTSPITTTYFFFKKK peptide 1.5 μM; IRAK4, 0.6 nM; and DMSO, 1.6%.

[3] = test system: IL-6 levels in human whole blood stimulated with a TLR2 agonist; test: IRAK4 Whole Blood Assay (TLR2 agonist lipoteichoic acid-stimulated IL-6); assay type: cell-based; conditions: 10 μg/mL lipoteichoic acid, 5 hours, IL-6 readout
Method: Human whole blood containing the anti-coagulant ACD-A was plated in 384-well plate (25 μL/well) and incubated with compounds for 60 minutes at 37° C. in a 5% CO2 incubator. The blood was stimulated with a TLR2 agonist, 10 μg/mL final concentration of lipoteichoic acid (Invivogen, San Diego, Calif.) in 25 μL RPMI (Gibco) for 5 hours in a 5% CO2 incubator. At the end of the incubation, plates were centrifuged at 2300 rpm for 5 minutes. Supernatants were harvested and analyzed for IL-6 levels by Flow Cytometry beads assay (BD Biosciences, San Jose, Calif.).

Structure (SMILES)	Papp at 2 h, 3 µM [1] [×10⁻⁶ cm/s]	IC50 [2] [nM]	EC50 [3] [nM]
CC[C@H]1[C@@H](COc2csc3cc(C(N)=O)c(OC)nc23)NC(=O)C1(F)F [Example 1, 3-(((2S,3S)-3-Ethyl-4,4-difluoro-5-oxopyrrolidin-2-yl)methoxy)-5-methoxythieno[3,2-b]pyridine-6-carboxamide]	10.2	0.6	58
CC[C@@H]1[C@H](F)C(=O)N[C@@H]1COc1csc2cc(C(N)=O)c(OC)nc12 [Example 2, 3-(((2S,3S,4S)-3-Ethyl-4-fluoro-5-oxopyrrolidin-2-yl)methoxy)-5-methoxythieno[3,2-b]pyridine-6-carboxamide]	7.3	1.2	205
CC[C@@H]1[C@H](F)C(=O)N[C@@H]1COc1csc2cc(C(N)=O)c(OC)cc12 [Example 4, 3-(((2S,3S,4S)-3-ethyl-4-fluoro-5-oxopyrrolidin-2-yl)methoxy)-5-methoxybenzo[b]thiophene-6-carboxamide]	8.5	0.4	153
CC[C@@H]1CC(=O)N[C@@H]1COc1csc2cc(C(N)=O)c(OC)nc12 [Example 6, 3-(((2S,3R)-3-ethyl-5-oxopyrrolidin-2-yl)methoxy)-5-methoxythieno[3,2-b]pyridine-6-carboxamide]	8.1	1	3210
CC[C@H]1[C@@H](COc2csc3cc(C(N)=O)c(OC)nc23)NC(=O)[C@@H]1F [Example 8, 3-(((2S,3S,4R)-3-ethyl-4-fluoro-5-oxopyrrolidin-2-yl)methoxy)-5-methoxythieno[3,2-b]pyridine-6-carboxamide]	4.2	0.7	92
CC[C@@H]1CC(=O)N[C@@H]1COc1c(C)sc2cc(C(N)=O)c(OC)nc12 [Example 19, 3-(((2S,3R)-3-ethyl-5-oxopyrrolidin-2-yl)methoxy)-5-methoxy-2-methylthieno[3,2-b]pyridine-6-carboxamide]	22.5	10.6	3300
COc1nc2c(OC[C@H]3NC(=O)C(F)(F)[C@H]3C)csc2cc1C(N)=O [Example 21, 3-(((2S,3S)-4,4-difluoro-3-methyl-5-oxopyrrolidin-2-yl)methoxy)-5-methoxythieno[3,2-b]pyridine-6-carboxamide]	13.6	1.3	127
CC[C@@H]1[C@H](F)C(=O)N[C@@H]1COc1csc2cc(C(N)=O)c(OC(C)C)nc12 [Example 23, 3-(((2S,3S,4S)-3-ethyl-4-fluoro-5-oxopyrrolidin-2-yl)methoxy)-5-isopropoxythieno[3,2-b]pyridine-6-carboxamide]	18.4	1.4	189
CC[C@@H]1OC(=O)N[C@@H]1COc1csc2cc(C(N)=O)c(OC)nc12 [Example 26, 3-(((4R,5S)-5-ethyl-2-oxooxazolidin-4-yl)methoxy)-5-methoxythieno[3,2-b]pyridine-6-carboxamide]	3.5	6.8	–
COc1nc2c(OC[C@H]3NC(=O)[C@H](F)[C@H]3C)csc2cc1C(N)=O [Example 27, 3-(((2S,3S,4R)-4-fluoro-3-methyl-5-oxopyrrolidin-2-yl)methoxy)-5-methoxythieno[3,2-b]pyridine-6-carboxamide]	5.9	1.1	58
COc1nc2c(OC[C@H]3NC(=O)[C@@H](F)[C@H]3C)csc2cc1C(N)=O [Example 28, 3-(((2S,3S,4S)-4-fluoro-3-methyl-5-oxopyrrolidin-2-yl)methoxy)-5-methoxythieno[3,2-b]pyridine-6-carboxamide]	5.8	13.3	736
